Data published in patent US20140221361A1, “C-19 MODIFIED TRITERPENOIDS WITH HIV MATURATION INHIBITORY ACTIVITY” (priority 2013, published 2014).

System: recombinant NL4-3 virus (Renilla luciferase in nef, Gag P373S)
Test: HIV cell culture assay (luciferase reporter, MT-2 cells)
Format: cell-based, HIV-1
Settings: luciferase activity, serial dilutions of inhibitor
In short: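 MT-2 cells infected with recombinant NL4-3 carrying Renilla luciferase in place of part of nef and Gag P373S, virus made by 293T transfection. Infection ran 4-5 days with serial inhibitor dilutions. Antiviral activity read as luciferase activity (Dual Luciferase reagents mixed with lysis buffer).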

[1] = Renilla, NL43, MT-2 cells infected for 4-5 days with NLRluc recombinants

Row | SMILES | EC50 [1] | EC50 (MT-2 cells infected for 4-5 days with NLRluc recombinants)
1 | C=C(CO)[C@@H]1CC[C@]2(NC(=O)OC(C)(C)C)CC[C@]3(C)[C@H](CC[C@@H]4[C@@]5(C)CC=C(c6ccc(C(=O)O)c(F)c6)C(C)(C)[C@@H]5CC[C@]43C)[C@@H]12 [Example A1, 4-((1R,3aS,5aR,5bR,7aR,11aS,11bR,13aR,13bS)-3a-((tert-butoxycarbonyl)amino)-1-(3-hydroxyprop-1-en-2-yl)-5a,5b,8,8,11a-pentamethyl-2,3,3a,4,5,5a,5b,6,7,7a,8,11,11a,11b,12,13,13a,13b-octadecahydro-1H-cyclopenta[a]chrysen-9-yl)-2-fluorobenzoic acid] | 20 nM | 
2 | CC(N)[C@@H]1CC[C@]2(NCCN3CCS(=O)(=O)CC3)CC[C@]3(C)[C@H](CC[C@@H]4[C@@]5(C)CC=C(c6ccc(C(=O)O)cc6)C(C)(C)[C@@H]5CC[C@]43C)[C@@H]12 (single isomer, unassigned) [Example B19] | 30 nM | 
3 | COCCS(=O)(=O)CCN(C)CCN[C@]12CC[C@@H](N(C)C)[C@@H]1[C@H]1CC[C@@H]3[C@@]4(C)CC=C(c5ccc(C(=O)O)cc5)C(C)(C)[C@@H]4CC[C@@]3(C)[C@]1(C)CC2 [Example B34] | 20 nM | 
4 | CC(CO)[C@@H]1CC[C@]2(NCCN3CCS(=O)(=O)CC3)CC[C@]3(C)[C@H](CC[C@@H]4[C@@]5(C)CC=C(c6ccc(C(=O)O)cc6)C(C)(C)[C@@H]5CC[C@]43C)[C@@H]12 (single isomer, unassigned) [Example B6] |  | 3.75 nM
